In patent US20230233488A1, “NOVEL USE OF A MODULATOR OF GLUCOSYLCERAMIDE DEGRADATION FOR VIRAL INFECTIONS” (SPEDDING RESEARCH SOLUTIONS, SAS, priority 2020, published 2023):

Key:
Huh7 cells = assay: Cytotoxicity in Huh7 cells (AlamarBlue); type: cell-based, human; conditions: 0.391 to 200 μM
SARS-CoV-2 = assay: Antiviral activity against SARS-CoV-2 in A549-ACE2 cells (supernatant viral load by RT-qPCR); conditions: for antiviral effect on SARS-CoV-2 replication / viral load: 10^−8 to 5.10^−5 M, 48 h, hydrochloride
A549-ACE2 cells = assay: Cytotoxicity in A549-ACE2 cells (AlamarBlue); conditions: 48 h incubation, 10^−8 to 5.10^−5 M
[1] = test system: dengue virus serotype 2—strain 16681 (DENV2); assay: DENV2 infection of Huh7 cells, infectious virus release in supernatants (plaque assay on BHK cells); type: cell-based
Description: • 2.1 Material and methods Huh7, human hepatoma cells were used for all primary experiments. For all siRNA experiments, cells were seeded in 24-well plates at a concentration of 2×10^5 cells/well in DMEM and 10% FBS. […] During siRNA and drug treatment the media was removed and replaced with DMEM and 2% FBS and a corresponding concentration of siRNA or ambroxol. During viral infection, all media is removed and set aside, and a viral inoculum is added to the cells. The cells and viral inoculum are incubated for 1 hr at room temperature on a rocker. The virus is then aspirated from cells, cells are washed with 1Xphosphate buffer saline (PBS), the media is re-added to the cells, and cells are incubated at 37° C. and 5% CO2 for 24 h. […] Plaque assay analysis of infectious virus release from supernatants was conducted on baby hamster kidney cells (BHK cells). BHK cells are maintained in MEM with 10% FBS. For plaque assays, BHKs are seeded in 6 well plates at a density of […] cells/well. The following day, dilutions of viral supernatants collected from samples are applied to BHK cells, followed by a 1 hr incubation at room temperature, and then cells are overlaid with MEM containing 5% FBS and 2% agarose. Plaques are counted at 6 days post infection. For qRT-PCR analysis, cells are collected post infection in TRIzol reagent (Invitrogen), and RNA is extracted per manufacturer's protocol. A one-step qRT-PCR kit from Agilent (Brilliant III Ultra Fast SYBR Green qRT-PCR Kit) is used to assess viral genome copies. A standard curve of viral RNA is generated using a viral RNA from a cDNA subclone of DENV2 as described in Gullberg RC, et al. 2018. Copies of viral RNA are normalized to the ribosomal protein lateral stalk protein subunit PO (RPLPO) gene using the delta delta Cq method also described in Gullberg RC et al. 2018 (cited above).
Huh7 cells were treated with siRNA targeting glucosylceramidase beta 1 (GBA1) and infected with dengue virus serotype 2—strain 16681 (DENV2) with a multiplicity of infection or MOI=0.3) according to known techniques (Gullberg RC et al. 2018 cited above). After 24 hours post infection (hpi), supernatants were collected and analyzed via plaque assay on baby hamster kidney cells (BHK cells) for infectious virus release.
Huh7 cells were pre-treated with Ambroxol hydrochloride at 0.391, 0.781, 1.56, 3.125, 6.25, 12.5, 25, 50, 100, and 200 μM for 24 h, followed by DENV2 infection with MOI=0.1; or MOI=5). 24 hours post infection, supernatants were collected and analyzed via plaque assay on BHK cells.
Huh7 cells were treated with siRNAs targeting GBA1 and glucosylceramidase beta 2 (GBA2) enzymes followed by DENV2 infection with MOI=0.1; or MOI=5). 24 hpi, supernatants were collected and analyzed via plaque assay on BHK cells while RNA was extracted from cells and analyzed via qRT-PCR for DENV2 genome replication. Results

SMILES: Cl.Nc1c(Br)cc(Br)cc1CN[C@H]1CC[C@H](O)CC1 [Ambroxol, trans-4-(2-Amino-3,5-dibromobenzylamino) cyclohexanol hydrochloride]
- cytopathic effect on cells (Huh7 cells): only the highest concentrations (100 μM and 200 μM) having any cytopathic effect
- antiviral effect on SARS-CoV-2 replication / viral load (SARS-CoV-2): significant concentration-dependent antiviral effect
- antiviral effect on SARS-CoV-2 replication / viral load (SARS-CoV-2; listed as ambroxol): concentration-dependent effect reducing SARS-CoV-2 viral load
- maximal antiviral effect compared with remdesivir (SARS-CoV-2; dose-response of FIG. 1C): equivalent to that of remdesivir
- IC50 (SARS-CoV-2; read-out: 50% effective concentration (IC50), SARS-CoV-2 supernatant viral load, MOI 0.1, 48 h post infection, hydrochloride): 22 µM
- cell viability (cytotoxicity) (A549-ACE2 cells): no toxic effects on cell viability
- potency against Dengue virus relative to SARS-CoV-2 ([1]; Dengue versus SARS-CoV-2): 10 fold
- IC50 ([1]; Dengue virus, DENV2, MOI 0.1, read-out: IC50 against Dengue virus): 0.86 µM
- concentration above which no detectable virus was released from cells ([1]; MOI=0.1, Huh7 cells, 24 h post infection): above 6.25 μM
- DENV2 release from Huh7 cells, low MOI ([1]; MOI=0.1, all concentrations tested (0.391 to 200 μM), 24 h pre-treatment, 24 h post infection): statistically significant reduction of DENV2 release
- concentration giving a statistically significant reduction of DENV2 release ([1]; MOI=5, Huh7 cells, 24 h post infection): ≥ 12.5 µM
- DENV2 release from Huh7 cells, high MOI ([1]; MOI=5, all concentrations tested (0.391 to 200 μM), 24 h post infection): reduced DENV2 release
